Measurements from patent publication US6310210A, “Camptothecin derivatives” (Kabushiki Kaisha Yakult Honsha, priority 1997, dated 2001).
≈ marks a conversion by molar mass, not a printed value. Blank lines part the entries; values can stand above or below the molecule they belong to.

How the values were obtained:
[1] = Solubility of each hydrochloride in purified water; assay type: physicochemical
Description: A corresponding camptothecin-21-(2-dimethylamino) ethylamide derivative (100-200 mg) was added with an aqueous 0.1 N HCl solution (1.05 eq.) and dissolved, if necessary, further by adding purified water. The solution was filtered using MILLEX-GV ([…] Filter Unit), and the filtrate was lyophilized to give the desired hydrochloride.
Table 1: Solubility of each hydrochloride in purified water

[2] = Stability test in water at each pH (phosphate buffer, HPLC); assay type: physicochemical; conditions: for Amount of the compound in test solution: room temperature (about 26° C.)
Description: 1) Preparation of calibration curve:
1.05 mg of the compound 1 and 1.10 mg of the compound A (Note) were measured, dissolved in acetonitrile 10 ml to give a standard solution. 20 μl of the standard solution was tested by HPLC method (procedure condition 1). The peak area of the compound 1 and the compound A (Note), which is obtained from the chromatograph of the standard solution is measured by an automatic integration method, and the obtained area is plotted against an amount of the compound 1 and the compound A (2.1 μg and 2.2 μg) by 20 μl to prepare a calibration curve.
[HPLC method, procedure condition 1]
Column: Inertsil ODS-3 (5-250), 40 deg.
Mobile phase: 0.01 M potassium dihydrogenphosphate-acetonitrile (3:1)
Detection: UV absorptiometer (254 nm)
About 1 mg (×3) of the compound 1 were measured, dissolved adding a phosphate buffer 10 ml of pH 10.0, 7.0 or 5.4, stirred at room temperature (about 26° C.) to make a test solution. As to each 20 μl of the test solution at the time of dissolution, 3 hr later and 24 hr later, the tests were carried out by the HPLC method (procedure condition 1). The amounts of the compound 1 were measured from the obtained area. The amounts of the compound A in each pH were measured.
The amounts (μg/ml) of the compound 1 and the compound A at the time of dissolution, 3 hr later and 24 hr later in each pH are shown in Table 7.

mouse leukemia L1210 = test: Anti-tumor activity: life prolonging effect in mice transplanted intraperitoneally with mouse leukemia L1210 (T/C%); assay type: in vivo; conditions: for Anti-tumor activity (T/C%): i.p. day 1, 5 and 9
Description: 5×10^5 cells of mouse leukemia L1210 were transplanted intraperitoneally to a group of six female CDP1 mice (7 weeks old, body weight 17-19 g). A test substance was administered intraperitoneally on day 1, 5 and 9, and its life prolonging effect was observed. In a case of the administration of a test substance as an acid addition salt, it was dissolved in purified water. The total administration amount was 1.56-400 mg/kg. The anti-tumor activity was expressed by the value (T/C%) in which the ratio of the mean survival days of a drug administered group (T) to the mean survival days of a not administered group (C) is multiplied by 100.

solubility [1]: ≥ 50 mg/mL
Amount of the compound in test solution ([2]; pH 5.4, 3 hr later): 118 µg/mL
Amount of the compound in test solution ([2]; pH 5.4, 24 hr later): 118 µg/mL
Amount of the compound in test solution ([2]; pH 5.4, at the time of dissolution): 118 µg/mL
Amount of the compound in test solution ([2]; pH 7.0, 3 hr later): 105 µg/mL
Amount of the compound in test solution ([2]; pH 7.0, 24 hr later): 105 µg/mL
Amount of the compound in test solution ([2]; pH 7.0, at the time of dissolution): 105 µg/mL
Stability in aqueous solution (in words) ([2]; pH 7.0 and 5.4, room temperature): stably present at room temperature
Amount of the compound in test solution ([2]; pH 10.0, 3 hr later): 106 µg/mL
Amount of the compound in test solution ([2]; pH 10.0, 24 hr later): 97 µg/mL
Amount of the compound in test solution ([2]; pH 10.0, at the time of dissolution): 109 µg/mL
remaining at 24 h ([2]; phosphate buffer, pH 10.0, after 24 hr, read-out: remained in the aqueous solution): 89%
Compound: CCc1c2c(nc3ccccc13)-c1cc([C@@](O)(CC)C(=O)NCCN(C)C)c(COC(=O)NC)c(=O)n1C2 [Compound 1, 7-Ethyl-17-methylcarbamoyloxycamptothecin-21-(2-dimethylamino)ethylamide]
Anti-tumor activity (T/C%) (mouse leukemia L1210; Table 2, total dose 3.13 mg/kg): 97%
Anti-tumor activity (T/C%) (mouse leukemia L1210; Table 2, total dose 6.25 mg/kg): 97%
Anti-tumor activity (T/C%) (mouse leukemia L1210; Table 2, total dose 12.5 mg/kg): 95%
Anti-tumor activity (T/C%) (mouse leukemia L1210; Table 2, total dose 25 mg/kg): 97%
Anti-tumor activity (T/C%) (mouse leukemia L1210; Table 2, total dose 50 mg/kg): 97%
Anti-tumor activity (T/C%) (mouse leukemia L1210; Table 2, total dose 100 mg/kg): 139%
Anti-tumor activity (T/C%) (mouse leukemia L1210; Table 2, total dose 200 mg/kg): 145%

solubility [1]: ~50 mg/mL (≈ 93.3 mM)
Compound: CCc1c2c(nc3ccccc13)-c1cc([C@@](O)(CC)C(=O)NCCN(C)C)c(COC(=O)N(C)C)c(=O)n1C2 [Compound 14, 17-Dimethylcarbamoyloxy-7-ethylcamptothecin-21-(2-dimethylamino)ethylamide]
Anti-tumor activity (T/C%) (mouse leukemia L1210; Table 4, total dose 3.13 mg/kg): 118%
Anti-tumor activity (T/C%) (mouse leukemia L1210; Table 4, total dose 6.25 mg/kg): 121%
Anti-tumor activity (T/C%) (mouse leukemia L1210; Table 4, total dose 12.5 mg/kg): 126%
Anti-tumor activity (T/C%) (mouse leukemia L1210; Table 4, total dose 25 mg/kg): 136%
Anti-tumor activity (T/C%) (mouse leukemia L1210; Table 4, total dose 50 mg/kg): 149%
Anti-tumor activity (T/C%) (mouse leukemia L1210; Table 4, total dose 100 mg/kg): 218%
Anti-tumor activity: fraction in parentheses after T/C% (meaning not given) (mouse leukemia L1210; Table 4, total dose 200 mg/kg, group of six mice): 4/6
Anti-tumor activity (T/C%) (mouse leukemia L1210; Table 4, total dose 200 mg/kg): 523%
